According to PMC6155222, “3-Substituted N-Benzylpyrazine-2-carboxamide Derivatives: Synthesis, Antimycobacterial and Antibacterial Evaluation” (Molecules : A Journal of Synthetic Chemistry and Natural …, 2017):
Values after ≈ are worked out from the molar mass of the structure shown.

Tests used:
[1] = Determination of lipophilicity by RP-HPLC (log k); settings: RP-HPLC capacity factor, MeOH 70% / H2O 30%, C18, 30 °C
Method: Log k was determined using an Agilent Technologies 1200 SL liquid chromatograph with Diode-array Detector SL G1315C (Agilent Technologies Inc., Colorado Springs, CO, USA), with pre-column ZORBAX XDB-C18 5 μm, 4 mm × 4 mm, Part No. 7995118-504 (Agilent Technologies Inc.) and column ZORBAX Eclipse XDB-C18 5 μm, 4.6 mm × 250 mm, Part No. 7995118-585 (Agilent Technologies Inc.). The separation process was controlled by Agilent ChemStation, version B.04.02, extended by a spectral module (Agilent Technologies Inc.). The mobile phase consisted of MeOH (HPLC grade, 70%) and H2O (HPLC-Milli-Q Grade, 30%).
The flow rate was 1.0 mL/min, samples were injected in a volume of 20 μL, and the column temperature was 30 °C. A value of 210 nm as the detection wavelength and 270 nm as the monitor wavelength were used. Retention times (tR) were measured in minutes. The dead time of the system (tD) was determined as the retention time of the KI methanol solution. Capacity factors k for individual compounds were calculated according to the formula k = (tR − tD)/tD. Log k, calculated from the capacity factor k, as used as the lipophilicity index converted to log scale.

[2] = tested on: Mycobacterium smegmatis CCM 4622 (ATCC 607); assay: Antimycobacterial screening, microdilution broth panel method with resazurin; assay type: cell-based; settings: Mycolicibacterium smegmatis, 48 h + 4 h
Method: An antimycobacterial assay was performed with fast growing Mycobacterium smegmatis CCM 4622 (ATCC 607) from the Czech Collection of Microorganisms (Brno, Czech Republic). The technique used for activity determination was a microdilution broth panel method using 96-well microtitration plates. The culturing medium was Middlebrook 7H9 (MB) broth (Sigma-Aldrich), enriched with 0.4% of glycerol (Sigma-Aldrich) and 10% of Middlebrook OADC growth supplement (Himedia, Mumbai, India). Tested compounds were dissolved in DMSO (Sigma-Aldrich), and the MB broth was then added to obtain a concentration of 2000 μg·mL^−1. Standards used for activity determination were isoniazid (INH), rifampicin (RIF), and ciprofloxacin (CPX) (Sigma-Aldrich). Final concentrations were reached by binary dilution and the addition of mycobacterial suspension, and were set as 500, 250, 125, 62.5, 31.25, 15.625, 7.81, and 3.91 μg·mL^−1, except for the standards of ciprofloxacin and rifampicin, where the final concentrations were 12.5, 6.25, 3.125, 1.56, 0.78, 0.39, 0.195, and 0.098 μg·mL^−1. […] Plates were also sealed with polyester adhesive film and incubated in the dark at 37 °C, without agitation. The addition of 0.01% solution of resazurin sodium salt followed after 48 h. This stain was prepared by dissolving resazurin sodium salt (Sigma-Aldrich) in deionised water, producing a 0.02% solution. Then, a 10% aqueous solution of Tween 80 (Sigma-Aldrich) was prepared. Both liquids were mixed up making use of the same volumes and filtered through a syringe membrane filter. Microtitration panels were then incubated for a further 4 h. Antimycobacterial activity was expressed as the minimal inhibition concentration (MIC) and the value was read on the basis of stain colour change (blue colour—active compound; pink colour—not active compound). […] All experiments were conducted in duplicate.

[3] = Cytotoxicity assay, CellTiter 96 Aqueous One Solution; assay type: cell-based; settings: human, HepG2 cells; for IC50 at 24 h: 24 h exposure
Method: The human liver hepatocellular carcinoma cell line HepG2 (passage 35–36), purchased from Health Protection Agency Culture Collections (ECACC, Salisbury, UK), was routinely cultured in Minimum Essential Eagle Medium MEM (Sigma-Aldrich) supplemented with 10% fetal bovine serum (PAA Laboratories GmbH, Pasching, Austria), 2mM L-glutamine solution (Sigma-Aldrich), and 1% non-essential amino acid solution (Sigma-Aldrich), in a humidified atmosphere containing 5% CO2 at 37 °C.
For subculturing, the cells were harvested after trypsin/EDTA (Sigma-Aldrich) treatment at 37 °C. To evaluate the cytotoxicity, the HepG2 cells treated with the tested substances were used as experimental groups, whereas untreated HepG2 cells served as control groups.
The HepG2 cells were seeded in a density of 1 × 10^4 cells per well on a 96-well plate. The following day (24 h after seeding), they were treated with tested substances dissolved in DMSO (maximal incubation concentration of DMSO was 1%). […] The treatment was carried out in a humidified atmosphere containing 5% CO2 at 37 °C, in triplicate, for 24 h. The controls representing 100% cell viability, 0% cell viability (the cells treated with 10% DMSO), no-cell controls, and vehiculum controls were incubated in triplicate, simultaneously. After 24 h exposure, the reagent from the kit CellTiter 96® Aqueous One Solution Cell Proliferation Assay (Promega) was added, according to the recommendation of the manufacturer. After 2 h incubation at 37 °C in humidified, 5% CO2 atmosphere, the absorbance was recorded at 490 nm. Inhibitory curves were constructed for each compound, plotting incubation concentrations vs. percentage of absorbance relative to untreated control. The standard toxicological parameter IC50 was calculated by a nonlinear regression analysis of the inhibitory curves using GraphPad Prism software (version 6, GraphPad Software, Inc., La Jolla, CA, USA).

[4] = tested on: Mycobacterium tuberculosis H37Rv; assay: Microplate Alamar Blue Assay (MABA), microdilution panel method; assay type: cell-based
[5] = tested on: Staphylococcus aureus CCM 4516/08; assay: Antibacterial microdilution broth method; assay type: cell-based; settings: CCM4516, 24 h, read-out: MIC after 24 h S. aureus
Method: (§1) Microdilution broth method. Antibacterial evaluation was performed against eight bacterial strains from the Czech Collection of Microorganisms (Brno, Czech Republic) (Staphylococcus aureus CCM 4516/08, Escherichia coli CCM 4517, Pseudomonas aeruginosa CCM 1961) or clinical isolates from the Department of Clinical Microbiology, University Hospital and Faculty of Medicine in Hradec Králové, Charles University in Prague, Czech Republic (Staphylococcus aureus H 5996/08-methicilin resistant (MRSA), Staphylococcus epidermidis H 6966/08, Enterococcus sp. J 14365/08, Klebsiella pneumoniae D 11750/08, Klebsiella pneumoniae J 14368/08-ESBL positive). All strains were subcultured on Mueller-Hinton agar (MHA) (Difco/Becton Dickinson, Detroit, MI, USA) at 35 °C and maintained on the same medium at 4 °C. The compounds were dissolved in DMSO, and the antibacterial activity was determined in Mueller-Hinton liquid broth (Difco/Becton Dickinson), and buffered to pH 7.0. Controls consisted of medium and DMSO alone. […] The minimum inhibitory concentration (MIC), defined as the minimum concentration to prevent the visible growth compared to control, was determined after 24 and 48 h of static incubation at 35 °C. The standards were neomycin, bacitracin, penicillin G, ciprofloxacin, and phenoxymethylpenicillin.

[6] = tested on: Staphylococcus epidermidis H 6966/08; assay: Antibacterial microdilution broth method; assay type: cell-based; settings: Staphylococcus epidermidis, H6966/08, 24 h; read-out: MIC after 24 h S. epidermidis
Method: as §1

[7] = tested on: Staphylococcus aureus H 5996/08-methicilin resistant (MRSA); assay: Antibacterial microdilution broth method; assay type: cell-based; settings: Staphylococcus aureus, MRSA, 24 h; read-out: MIC after 24 h MRSA
Method: as §1

[8] = tested on: M. avium ssp. avium Chester CNCTC My 80/72; assay: Microplate Alamar Blue Assay (MABA), microdilution panel method; assay type: cell-based; settings: Mycobacterium avium
[9] = tested on: M. kansasii Hauduroy CNCTC My 235/80; assay: as above; assay type: cell-based; settings: Mycobacterium kansasii

Structure (SMILES)	Log k [1]	MIC [2] [µg/mL]	IC50 at 24 h [3] [µM]	MIC ([4]; pH 6.6) [µg/mL]	MIC ([4]; value in parentheses) [µM]	selectivity ratio at 24 h ([3]; HepG2 IC50 / MIC S. aureus, read-out: selectivity index, SI = IC50/MIC)	MIC [5] [µM]	MIC [6] [µM]	MIC [7] [µM]	MIC [8] [µg/mL]	MIC [9] [µg/mL]
O=C(NCc1ccc(Cl)c(Cl)c1)c1nccnc1NCc1ccc(Cl)c(Cl)c1 [Compound 9a, N-(3,4-Dichlorobenzyl)-3-((3,4-dichlorobenzyl)amino)pyrazine-2-carboxamide]	1.997	> 500	> 100	12.5	27						
O=C(NCc1ccccc1Cl)c1nccnc1Cl [Compound 5, 3-Chloro-N-(2-chlorobenzyl)pyrazine-2-carboxamide]	0.033	250	847	> 100		108	7.81 (≈ 2.2 µg/mL)	15.6 (≈ 4.41 µg/mL)	500 (≈ 141 µg/mL)		
O=C(NCc1ccc(Cl)cc1)c1nccnc1NCc1ccc(Cl)cc1 [Compound 7a, N-(4-Chlorobenzyl)-3-((4-chlorobenzyl)amino)pyrazine-2-carboxamide]	1.533	> 250		> 50						> 50	> 50
NNC(=O)c1ccncc1 [INH, isoniazid, reference compound]		7.81 to 15.6		0.2						6.25 to 12.5 (≈ 45.6 to 91.1 µM)	3.13 to 12.5 (≈ 22.8 to 91.1 µM)
COc1ccc(CNC(=O)c2nccnc2NCc2ccc(OC)cc2)cc1 [Compound 3a, N-(4-Methoxybenzyl)-3-((4-methoxybenzyl)amino)pyrazine-2-carboxamide]	0.981	> 500	> 100	50	132		15.6 (≈ 5.91 µg/mL)	> 500	62.5 (≈ 23.7 µg/mL)		
